Measurements from patent US8193154B2, “Oligopeptide tyrosinase inhibitors and uses thereof” (The Board of Trustees of the Leland Stanford Junior …, priority 2007, dated 2012).
Where two headings read alike, the source gives them in different places.

How the values were obtained:
[1] = system: Primary human melanocytes; details: for effect on melanocyte proliferation rates: FIG. 3
Procedure: Primary human melanocytes, passage 3, were kindly obtained from Dr. Todd Ridky in the department of dermatology, Stanford University. Cells were cultured in Medium 254 (Cascade Biologics) supplemented with Human Melanocyte Growth Supplement (HMGS, Cascade Biologics). They were grown in a humidified atmosphere with 5% CO2 at 37° C. Cell plating densities were arranged that those cells were in log phase of growth for the duration of incubation with test samples. Subcultures of cells were plated at a density of 4×10^4 cells/cm^2. Approximately 24 h later, fresh medium and test samples were added. Cells were harvested 7 d after test samples addition, replaced with fresh medium and test samples every two days.
Cell viability was determined using WST-1 Cell Proliferation Kit (Roche). Cells were plated at 1×10^5/well (24-well plates). Twenty-four hours after plating, test samples were added and cultures were incubated for an additional 7 d. At the end of the treatment period, 50 μl WST-1 was added to each well. The plates were placed at 37° C. for 4 h in the dark and the absorbance at 450 nm was read using microplate. Usually, 3 replicate wells were measured for each group to be tested. Wells containing medium but no cells served as controls. Cell viability was calculated according to the equation: cell viability=absorbance(sample tested)/absorbance(medium only)×100%.
The concentrations of HQ tested on melanocytes were 1, 10, 100, and 1000 μM, while those of YR peptide were 1, 10, and 100 μM.

Human melanocytes = assay: Melanin content measurement in melanocytes; format: cell-based; details: FIG. 4; for melanin content: 10 μM (YR peptide: similar concentration), 7 days
Procedure: Human melanocytes were cultured in 6-well plates and treated with individual test samples for 7 d. After washes in PBS, cells were detached by short incubation in trypsin/EDTA (0.25%/0.1% in PBS). An aliquot was used for cell count. The remaining cells were sonicated and incubated overnight in 500 μl 1 M NaOH at 37° C., avoid light. Melanin concentrations were calculated by comparison of the OD at 475 nm of unknown samples with a standard curve obtained with synthetic melanin.
To provide more direct evidence that the YR peptide inhibits melanogenesis, we determined its effects on melanin production in melanocytes. The contents of melanin in melanocytes treated with no addition, YR peptide (P4) or HQ for 7 days were determined with spectrophotometer and compared with melanin standard curve.

Cellular tyrosinase = biological target: T1, Cellular tyrosinase (Homo sapiens, UniProt P14679); assay: Cellular tyrosinase activity using L-DOPA as the substrate; format: cell-based; details: for reduction of cellular tyrosinase activity: 7 d treatment of melanocytes
T1 construct: endogenous in cells; host or cells: primary human melanocytes, passage 3
T1 sequence (P14679 19-529): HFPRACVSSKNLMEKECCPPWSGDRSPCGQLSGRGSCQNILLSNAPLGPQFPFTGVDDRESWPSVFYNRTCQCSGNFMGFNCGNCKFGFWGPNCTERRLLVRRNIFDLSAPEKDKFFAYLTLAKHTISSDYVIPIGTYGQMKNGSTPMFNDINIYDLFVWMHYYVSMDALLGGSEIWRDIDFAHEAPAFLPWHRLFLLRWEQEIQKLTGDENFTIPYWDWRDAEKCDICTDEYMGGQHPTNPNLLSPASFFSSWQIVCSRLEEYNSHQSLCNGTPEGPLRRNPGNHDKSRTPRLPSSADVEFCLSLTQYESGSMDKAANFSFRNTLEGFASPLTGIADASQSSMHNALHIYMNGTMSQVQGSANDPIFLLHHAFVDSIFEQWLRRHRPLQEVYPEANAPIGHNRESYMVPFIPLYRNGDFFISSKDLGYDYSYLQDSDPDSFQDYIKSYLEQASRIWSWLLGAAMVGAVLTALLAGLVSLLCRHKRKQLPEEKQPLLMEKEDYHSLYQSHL
Procedure: Cellular tyrosinase activity using L-DOPA as the substrate was assayed by the method of Cheng K T, Hsu F L, Chen S H, Hsieh P K, Huang H S, Lee C K, Lee M H. 2007. […] Chem. Pharm Bull 55(5): 757-761.
Human melanocytes were cultured in 6-well plates. After treatment with individual test samples for 7 d, the cells were washed with phosphate-buffered saline (PBS) and lysed with phosphate buffer, pH 6.8, containing 1% Triton X-100. After sonication, lysates were clarified by centrifugation at 10000 g for 10 min. After determination of protein content with a Bio-Rad protein assay kit, lysates were added to 96 well culture plate containing equal amounts of protein (40 μg), and adjusted with lysis buffer to reach 150 μl in each well. 75 μl of 10 mM L-DOPA dissolved in lysis buffer was added to each well. The culture plate was incubated at 37° C. for 30 min, and then read with the spectrophotometer at 475 nm.
Tyrosinase inhibitory activity was calculated with the following formula: tyrosinase inhibition (%)=[1−(O.D.475 of sample/O.D.475 of control)]×100%.
After centrifugation and protein calculation, certain volume of supernatant for each sample was transferred to 96 well culture plate by compensating a certain protein content in each well, and adjusted the volume of each well to 150 μl with 0.067 M of phosphate buffer (pH 6.8). 75 μl of 10 mM L-DOPA dissolved in phosphate buffer (pH 6.8) was added to each well. The culture plate was incubated at 37° C. for 30 min, and then read with the spectrophotometer at 475 nm.

tyrosinase = details: read-out: published IC50; literature value; cited from earlier work
Mushroom tyrosinase = Mushroom tyrosinase inhibition, colorimetric detection of dopachrome from L-tyrosine; format: biochemical; details: for IC50 (result in words): L-tyrosine substrate, pH 6.8, 37° C., absorbance at 475 nm 30 min after initiation; for inhibitory activity on tyrosinase: in vitro, FIG. 1, FIG. 2 and peptide screen
Procedure: Mushroom tyrosinase, L-tyrosine and other chemicals for the enzymatic reaction were obtained from Sigma-Aldrich. […] All synthetic peptides were between 3 and 10 amino acids in length and were synthesized using tBoc and/or Fmoc solid phase chemistry.
Inhibition of tyrosinase by experimental peptides was determined by colorimetric detection of dopachrome, the reaction product of the substrate L-tyrosine. Mushroom tyrosinase, L-tyrosine, and a potassium phosphate buffer (pH 6.8) were added to 96-well plates containing short sequence peptides dissolved in 5% DMSO and incubated at 37° C. The absorbance at 475 nm was measured using a BIO-TEK plate reader 30 min after reaction initiation. Each experiment was performed in triplicate on 3 separate occasions. The protocol is described in further detail in Piao et al., “Mushroom Tyrosinase Inhibition Activity of Some Chromones,” Chem. Pharm. Bull. […]: 309-311 (2002), and in Pomerants, J. Biol. Chem. 238:2351-2357 (1963).
Enzyme kinetics were calculated using the Michaelis-Menton equation by observing changes in reaction velocity accompanying substrate concentrations of 0.5, 1, 2, and 4 mM L-tyrosine. Once initial reaction velocities were obtained, Lineweaver-Burke plots were created to calculate Km, Vmax, and to determine the mode of enzymatic inhibition.
Tyrosinase inhibition activity was determined in vitro using L-tyrosine as substrate with a modified method from Piao L Z, Park H R, Park Y K, Lee S K, Park J H, Park M K. 2002. Mushroom Tyrosinase Inhibition Activity of Some Chromones. Chem. Pharm Bull 50(3): 309-311.
The concentration of enzyme, substrate and inhibitor was denoted as [E], [S] and […], respectively. 80 microliters of 0.067 M potassium phosphate buffer (pH 6.8), 40 microliters of L-tyrosine in 0.067 M potassium phosphate buffer (pH 6.8), 40 microliters of inhibitor in 5% DMSO solution, and 40 microliters of mushroom tyrosinase solution were added to a 96-well microplate, to make the final concentration of each reagent to be: 0.2 mg/ml [S], and 96 units/ml [E], with varying [I]. 5% DMSO solution instead of an inhibitor solution was added to a blank solution and adjusted to the total volume of 200 microliters as control. The assay mixture was incubated at 37° C. The amount of dopachrome produced in the reaction mixture was measured at 475 nm in a microplate reader at different time periods. The percentage of inhibition of tyrosinase activity was calculated as follows: Inhibition(%)=[(A−B)−C−D)]/(A−B)×100 • A: absorbance of blank solution after incubation • B: absorbance of blank solution before incubation • C: absorbance of sample solution after incubation • D: absorbance of sample solution before incubation

| Molecule | melanin content (Human melanocytes) | reduction of cellular tyrosinase activity (Cellular tyrosinase; 10 μM) [%] | IC50 (result in words) (Mushroom tyrosinase) | inhibitory activity on tyrosinase (Mushroom tyrosinase) | other results |
| --- | --- | --- | --- | --- | --- |
| Oc1ccc(O)cc1 [HQ, Hydroquinone, reference compound] | slightly reduced melanin content | 28.8 |  |  | effect on melanocyte proliferation rates ([1]; up to 10 μM): did not show inhibitory effects; IC50 (tyrosinase): ~700 µM |
| KFEFKFEF |  |  | no effect | only the former peptide had inhibiting activity |  |
| KFEKKFEK |  |  |  | had inhibiting activity |  |
| VLLK [control peptide; inner standard in stability testing] |  |  | no effect | only the YR peptide had inhibitory activity |  |
| YRSRKYSSWY | significantly reduced melanin content, to a greater extent than HQ | 24.1 |  | had inhibitory activity on tyrosinase | effect on melanocyte proliferation rates ([1]; 1, 10 and 100 μM, listed as P4): did not observe any inhibitory effects; effect on melanocyte proliferation rates ([1]; 1, 10 and 100 μM, listed as YR peptide): did not inhibit cell proliferation; toxicity to melanocytes ([1]; up to 100 μM, treatment for 7 days): No toxicity was observed; melanin synthesis in human melanocytes (Human melanocytes): inhibited melanin synthesis; reduction of cellular tyrosinase activity (Cellular tyrosinase; 1 μM): 14.5%; reduction of cellular tyrosinase activity (Cellular tyrosinase; 100 μM): 37.4%; inhibition of tyrosinase activity, in words (Cellular tyrosinase; FIG. 5, after incubation of melanocytes): comparable to that of HQ |
